Assay results: US9738634B2, “Heterocyclic amide compound and herbicide” (SYNGENTA PARTICIPATIONS AG, priority 2013, dated 2017)

How the values were obtained:
Type in all cases: in vivo
Conditions in all cases: treatment dosage 320 g/ha
[1] = system: Indian mallow; experiment: Test Example 3: weedkilling efficacy through soil treatment; K: Indian mallow
Summary of the method: (§1)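 Crop and weed responses were judged three weeks after a uniform surface spray of the water-diluted emulsion at the given g/ha rate. Seeds sat beneath about 1.5 cm of sterilized diluvial soil, and boxes stood in a greenhouse at 25 to 30° C.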

[2] = system: directly sown rice; experiment: Test Example 4: foliar treatment, effect on crop; b: directly sown rice
Summary of the method: (§2)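 Seeds are spot-sown into sterilized diluvial soil and covered with about 1.5 cm of soil. After 14 days' greenhouse growth at 25 to 30° C, plants are sprayed on stems and leaves with diluted emulsion at the stated g/ha rate, then scored at 3 weeks.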

[3] = system: Indian mallow; experiment: Test Example 4: weedkilling efficacy by foliar treatment; K: Indian mallow
Summary of the method: as §2

[4] = system: chickweed; experiment: Test Example 4: weedkilling efficacy by foliar treatment; N: chickweed
Summary of the method: as §2

[5] = system: wild oat; experiment: Test Example 4: weedkilling efficacy by foliar treatment; G: wild oat
Summary of the method: as §2

[6] = system: wild oat; experiment: Test Example 3: weedkilling efficacy through soil treatment; G: wild oat
Summary of the method: as §1

[7] = system: barnyard grass; experiment: Test Example 4: weedkilling efficacy by foliar treatment; F: barnyard grass
Summary of the method: as §2

[8] = system: transplanted rice; experiment: Test Example 1: preemergent weed treatment in the submerged state, effect on crop; a: transplanted rice
Summary of the method: (§3)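 Pots of alluvial soil flooded 4 cm deep, sown with barnyard grass, bulrush and oval-leafed pondweed and transplanted with 2.5-leaf rice. Emulsified compound applied to the water surface on sowing day at stated g/ha; greenhouse 25–30 °C, effects assessed 3 weeks after treatment.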

[9] = system: catchweed; experiment: Test Example 3: weedkilling efficacy through soil treatment; O: catchweed
Summary of the method: as §1

[10] = system: soybean; experiment: Test Example 4: foliar treatment, effect on crop; d: soybean
Summary of the method: as §2

[11] = system: rapeseed; experiment: Test Example 3: soil treatment, effect on crop; g: rapeseed
Summary of the method: as §1

[12] = system: common wind-grass; experiment: Test Example 3: weedkilling efficacy through soil treatment; J: common wind-grass
Summary of the method: as §1

[13] = system: barnyard grass; experiment: Test Example 3: weedkilling efficacy through soil treatment; F: barnyard grass
Summary of the method: as §1

[14] = system: catchweed; experiment: Test Example 4: weedkilling efficacy by foliar treatment; O: catchweed
Summary of the method: as §2

[15] = system: common wind-grass; experiment: Test Example 4: weedkilling efficacy by foliar treatment; J: common wind-grass
Summary of the method: as §2

[16] = system: chickweed; experiment: Test Example 3: weedkilling efficacy through soil treatment; N: chickweed
Summary of the method: as §1

[17] = system: corn; experiment: Test Example 4: foliar treatment, effect on crop; c: corn
Summary of the method: as §2

[18] = system: oval-leafed pondweed; experiment: Test Example 1: weedkilling efficacy, preemergent weed treatment in the submerged state; C: oval-leafed pondweed
Summary of the method: as §3

[19] = system: bulrush; experiment: Test Example 1: weedkilling efficacy, preemergent weed treatment in the submerged state; B: bulrush
Summary of the method: as §3

[20] = system: barnyard grass; experiment: Test Example 1: weedkilling efficacy, preemergent weed treatment in the submerged state; A: barnyard grass
Summary of the method: as §3

[21] = system: redroot pigweed; experiment: Test Example 3: weedkilling efficacy through soil treatment; L: redroot pigweed
Summary of the method: as §1

[22] = system: beet; experiment: Test Example 3: soil treatment, effect on crop; f: beet
Summary of the method: as §1

[23] = system: green foxtail; experiment: Test Example 3: weedkilling efficacy through soil treatment; E: green foxtail
Summary of the method: as §1

[24] = system: black-grass; experiment: Test Example 4: weedkilling efficacy by foliar treatment; H: black-grass
Summary of the method: as §2

[25] = system: crabgrass; experiment: Test Example 3: weedkilling efficacy through soil treatment; D: crabgrass
Summary of the method: as §1

[26] = system: birds-eye speedwell; experiment: Test Example 3: weedkilling efficacy through soil treatment; p: birds-eye speedwell
Summary of the method: as §1

[27] = system: corn; experiment: Test Example 3: soil treatment, effect on crop; c: corn
Summary of the method: as §1

[28] = system: directly sown rice; experiment: Test Example 3: soil treatment, effect on crop; b: directly sown rice
Summary of the method: as §1

[29] = system: crabgrass; experiment: Test Example 4: weedkilling efficacy by foliar treatment; D: crabgrass
Summary of the method: as §2

[30] = system: beet; experiment: Test Example 4: foliar treatment, effect on crop; f: beet
Summary of the method: as §2

[31] = system: barnyard grass; experiment: Test Example 2: weedkilling efficacy, growth period weed treatment in the submerged state; A: barnyard grass
Summary of the method: (§4)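 Barnyard grass, bulrush and oval-leafed pondweed sown in alluvial soil under 4 cm flooding, greenhouse 25 to 30° C. At 1-2 leaf stage, water-diluted emulsion applied to the water surface at stated g/ha dosages; effects scored 3 weeks later.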

[32] = system: Italian ryegrass; experiment: Test Example 3: weedkilling efficacy through soil treatment; I: Italian ryegrass
Summary of the method: as §1

[33] = system: redroot pigweed; experiment: Test Example 4: weedkilling efficacy by foliar treatment; L: redroot pigweed
Summary of the method: as §2

[34] = system: black-grass; experiment: Test Example 3: weedkilling efficacy through soil treatment; H: black-grass
Summary of the method: as §1

[35] = system: rapeseed; experiment: Test Example 4: foliar treatment, effect on crop; g: rapeseed
Summary of the method: as §2

[36] = system: soybean; experiment: Test Example 3: soil treatment, effect on crop; d: soybean
Summary of the method: as §1

[37] = system: wheat; experiment: Test Example 4: foliar treatment, effect on crop; e: wheat
Summary of the method: as §2

[38] = system: fig-leafed goosefoot; experiment: Test Example 4: weedkilling efficacy by foliar treatment; M: fig-leafed goosefoot
Summary of the method: as §2

[39] = system: oval-leafed pondweed; experiment: Test Example 2: weedkilling efficacy, growth period weed treatment in the submerged state; C: oval-leafed pondweed
Summary of the method: as §4

[40] = system: bulrush; experiment: Test Example 2: weedkilling efficacy, growth period weed treatment in the submerged state; B: bulrush
Summary of the method: as §4

[41] = system: wheat; experiment: Test Example 3: soil treatment, effect on crop; e: wheat
Summary of the method: as §1

[42] = system: fig-leafed goosefoot; experiment: Test Example 3: weedkilling efficacy through soil treatment; M: fig-leafed goosefoot
Summary of the method: as §1

[43] = system: green foxtail; experiment: Test Example 4: weedkilling efficacy by foliar treatment; E: green foxtail
Summary of the method: as §2

[44] = system: Italian ryegrass; experiment: Test Example 4: weedkilling efficacy by foliar treatment; I: Italian ryegrass
Summary of the method: as §2

CC1=C(c2ccccc2)C(=O)N(C(C)(C)C(=O)Nc2ccc(F)cn2)CO1 [B-2-26]
K (Indian mallow) weedkilling efficacy grade [1]: 0 (weed kill ratio 5% or less (practically no effect))
b (directly sown rice) effect on crop grade [2]: 1 (weed kill ratio 5% or more, less than 20%)
K (Indian mallow) weedkilling efficacy grade [3]: 3 (weed kill ratio 40% or more, less than 70%)
N (chickweed) weedkilling efficacy grade [4]: 3 (weed kill ratio 40% or more, less than 70%)
G (wild oat) weedkilling efficacy grade [5]: 3 (weed kill ratio 40% or more, less than 70%)
G (wild oat) weedkilling efficacy grade [6]: 1 (weed kill ratio 5% or more, less than 20%)
F (barnyard grass) weedkilling efficacy grade [7]: 3 (weed kill ratio 40% or more, less than 70%)
a (transplanted rice) effect on crop grade [8]: 0 (weed kill ratio 5% or less (practically no effect))
O (catchweed) weedkilling efficacy grade [9]: 2 (weed kill ratio 20% or more, less than 40%)
d (soybean) effect on crop grade [10]: 4 (weed kill ratio 70% or more, less than 90%)
g (rapeseed) effect on crop grade [11]: 0 (weed kill ratio 5% or less (practically no effect))
J (common wind-grass) weedkilling efficacy grade [12]: 5 (weed kill ratio 90% or more, (practically complete withering))
F (barnyard grass) weedkilling efficacy grade [13]: 5 (weed kill ratio 90% or more, (practically complete withering))
O (catchweed) weedkilling efficacy grade [14]: 3 (weed kill ratio 40% or more, less than 70%)
J (common wind-grass) weedkilling efficacy grade [15]: 5 (weed kill ratio 90% or more, (practically complete withering))
N (chickweed) weedkilling efficacy grade [16]: 3 (weed kill ratio 40% or more, less than 70%)
c (corn) effect on crop grade [17]: 3 (weed kill ratio 40% or more, less than 70%)
C (oval-leafed pondweed) weedkilling efficacy grade [18]: 5 (weed kill ratio 90% or more, (practically complete withering))
B (bulrush) weedkilling efficacy grade [19]: 5 (weed kill ratio 90% or more, (practically complete withering))
A (barnyard grass) weedkilling efficacy grade [20]: 5 (weed kill ratio 90% or more, (practically complete withering))
L (redroot pigweed) weedkilling efficacy grade [21]: 4 (weed kill ratio 70% or more, less than 90%)
f (beet) effect on crop grade [22]: 0 (weed kill ratio 5% or less (practically no effect))
E (green foxtail) weedkilling efficacy grade [23]: 5 (weed kill ratio 90% or more, (practically complete withering))
H (black-grass) weedkilling efficacy grade [24]: 4 (weed kill ratio 70% or more, less than 90%)
D (crabgrass) weedkilling efficacy grade [25]: 5 (weed kill ratio 90% or more, (practically complete withering))
P (birds-eye speedwell) weedkilling efficacy grade [26]: 0 (weed kill ratio 5% or less (practically no effect))
c (corn) effect on crop grade [27]: 0 (weed kill ratio 5% or less (practically no effect))
b (directly sown rice) effect on crop grade [28]: 2 (weed kill ratio 20% or more, less than 40%)
D (crabgrass) weedkilling efficacy grade [29]: 3 (weed kill ratio 40% or more, less than 70%)
f (beet) effect on crop grade [30]: 4 (weed kill ratio 70% or more, less than 90%)
A (barnyard grass) weedkilling efficacy grade [31]: 5 (weed kill ratio 90% or more, (practically complete withering))
I (Italian ryegrass) weedkilling efficacy grade [32]: 5 (weed kill ratio 90% or more, (practically complete withering))
L (redroot pigweed) weedkilling efficacy grade [33]: 4 (weed kill ratio 70% or more, less than 90%)
H (black-grass) weedkilling efficacy grade [34]: 5 (weed kill ratio 90% or more, (practically complete withering))
g (rapeseed) effect on crop grade [35]: 1 (weed kill ratio 5% or more, less than 20%)
d (soybean) effect on crop grade [36]: 0 (weed kill ratio 5% or less (practically no effect))
e (wheat) effect on crop grade [37]: 0 (weed kill ratio 5% or less (practically no effect))
M (fig-leafed goosefoot) weedkilling efficacy grade [38]: 4 (weed kill ratio 70% or more, less than 90%)
C (oval-leafed pondweed) weedkilling efficacy grade [39]: 5 (weed kill ratio 90% or more, (practically complete withering))
B (bulrush) weedkilling efficacy grade [40]: 5 (weed kill ratio 90% or more, (practically complete withering))
e (wheat) effect on crop grade [41]: 0 (weed kill ratio 5% or less (practically no effect))
M (fig-leafed goosefoot) weedkilling efficacy grade [42]: 4 (weed kill ratio 70% or more, less than 90%)
E (green foxtail) weedkilling efficacy grade [43]: 4 (weed kill ratio 70% or more, less than 90%)
I (Italian ryegrass) weedkilling efficacy grade [44]: 3 (weed kill ratio 40% or more, less than 70%)
